Values of other authors as cited in US12472272B2, “Radiolabelled compounds for diagnosis or treatment of prostate-specific membrane antigen- expressing cancer” (PROVINCIAL HEALTH SERVICES AUTHORITY, priority 2019, dated 2025).

What was measured:
tumor = conditions: Kuo et al. 2018, cited from earlier work
[1] = system: metastatic prostate cancer; conditions: cited from earlier work

O=C([O-])CN1CCN(CC(=O)[O-])CCN(CC(=O)NCC2CCC(C(=O)N[C@@H](Cc3ccc4ccccc4c3)C(=O)NCCCC[C@H](NC(=O)N[C@@H](CCC(=O)O)C(=O)O)C(=O)O)CC2)CCN(CC(=O)[O-])CC1.[177Lu+3] (stereo partly shown) [^177Lu-PSMA-617]
tumor uptake (tumor; 120 h post-injection): ~8 % ID/g
peaked tumor uptake (tumor; reported previously): ~15 % ID/g
complete response rate ([1]; human, in vivo): < 7%
patients with progressive disease after treatment ([1]; human, in vivo): up to 33%
side effects ([1]; human, in vivo): without severe side effects
patients having >50% reduction in PSA levels ([1]; metastatic prostate cancer): 32-60%
objective response ([1]; phase 2 Australian study, patients with measurable nodal or visceral disease): 82%
